Measurements published in patent US11072596B2, “Poly(ADP-ribose) polymerase inhibitor, preparation method and use” (SELECTION BIOSCIENCE LLC, priority 2017, dated 2021).

Columns and labels:
CYP2D6 = target: T1, CYP2D6 (Homo sapiens, UniProt P10635); assay: Inhibition of human liver microsomal CYP450 enzymes, CYP2D6; format: in vitro ADME; conditions: human liver microsomes, substrate Bufuralol 10 μM; Reference = quinidine; read-out: IC50 2D6
T1 construct: from tissue; host or cells: human liver microsomes (HLM)
T1 sequence (P10635 whole entry): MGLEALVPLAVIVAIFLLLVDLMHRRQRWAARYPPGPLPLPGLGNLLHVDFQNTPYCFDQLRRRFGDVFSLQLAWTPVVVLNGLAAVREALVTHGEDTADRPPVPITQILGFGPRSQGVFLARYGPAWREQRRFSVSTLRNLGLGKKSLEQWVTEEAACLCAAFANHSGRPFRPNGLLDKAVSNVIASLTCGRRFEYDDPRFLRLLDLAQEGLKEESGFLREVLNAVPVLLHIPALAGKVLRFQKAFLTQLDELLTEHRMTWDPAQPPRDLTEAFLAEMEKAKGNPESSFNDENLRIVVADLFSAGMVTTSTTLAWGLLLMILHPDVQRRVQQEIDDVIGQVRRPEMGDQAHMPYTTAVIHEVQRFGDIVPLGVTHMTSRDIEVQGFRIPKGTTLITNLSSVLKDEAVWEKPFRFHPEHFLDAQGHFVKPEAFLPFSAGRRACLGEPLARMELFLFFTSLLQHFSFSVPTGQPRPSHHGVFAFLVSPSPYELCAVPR
Method: (§1) The inhibitory effects of the compound of the present disclosure on the CYP450 enzymes of six human subtypes were determined by the following experimental method:
(§2) Reference compounds of each subtype: CYP1A2: α-naphthoflavone; CYP2C9: sulfaphenazole; CYP2C19: omeprazole; CYP3A4: ketoconazole; CYP2D6: quinidine.
(§3) Substrate concentration: CYP1A2: Phenacetin at 30 μM; CYP2C9: Diclofenac at 10 μM; CYP2C19: S-Mephenytoin at 35 μM; CYP3A4: Midazolam at 5 μM and Testosterone at 80 μM; CYP2D6: Bufuralol at 10 μM.
(§4) 6. 0.2 mg/mL of HLM was added to the test wells, 400 μL per well, and then the gradient diluted 400× test compound was added to the corresponding wells.
(§5) 7. 0.2 mg/mL of HLM was added to the test wells, 200 μL per well, and then the gradient-diluted reference inhibitor was added to the corresponding wells. Steps 6 and 7 needed to be performed on ice.
(§6) 8.1. 30 μL of test compound and reference compound were mixed in 0.2 mg/mL of HLM solution (see steps 6 and 7).
(§7) 8.2. 15 μL of 4× substrate solution (see step 4) was added.
(§8) 10. Preheated 8 mM of NADPH solution was added to the 96-well test plate (see step 3) to initiate the reaction, 15 μL per well.
(§9) 11. The test plate was incubated at 37° C.: 3A4 for 5 minutes, each of 1A2, 2C9 and 2D6 for 10 minutes, and 2C19 for 45 minutes.
(§10) 12. ACN containing internal reference was added to stop the reaction, 120 μL per well.
14. […]

[1] = Liver microsomal stability in vitro, rat; format: in vitro ADME; conditions: pH 7.4; rat liver microsomes 0.5 mg protein/mL, 1 μM test compound, 37° C.; read-out: Rat T1/2
Method: (§11) Evaluation of in vitro liver microsomal stability of the compound of the present disclosure was tested by the following method:
(§12) Buffer: 100 mM potassium phosphate buffer, pH 7.4; […] MgCl2.
(§13) Liver microsomes: human liver microsomes, Corning Cat No. 452117; Rat liver microsomes, Xenotech Cat No. R1000; Mouse liver microsomes, Xenotech Cat No. M1000; Dog liver microsomes, Xenotech Cat No. D1000; Liver microsomes of cynomolgus monkey, Corning Cat No. 452413, the final concentration was 0.5 mg protein/mL.
(§14) 1. Intermediate solution: 5 μL of compound or control in stock solution (10 mM) was diluted with 495 μL of methanol (concentration: 100 μM, 99% MeOH).
(§15) 2. Operating solution: the intermediate solution was diluted […] with 450 μL 100 mM potassium phosphate buffer (concentration: 10 μM, 9.9% MeOH).
(§16) 1. 10 μL of compound or control solution per well was added to all plates (T0, T5, T10, T20, T30, T60, NCF60) except matrix blank.
(§17) 2. Microsome solution was distributed to 96-well plates according to platemap for standby, 680 μL per well, and the mixture of microsome solution and the compound was incubated at 37° C. for about 10 minutes.
4. […]
(§18) 10. Data analysis: The peak area of the corresponding compound and internal standard was detected by LC-MS/MS, and the T1/2 of the compound was calculated by the following formula: […]

[2] = Liver microsomal stability in vitro, mouse; format: in vitro ADME; conditions: pH 7.4; mouse liver microsomes 0.5 mg protein/mL, 1 μM test compound, 37° C.; read-out: Mouse T1/2
Method: as §11, §12, §13, §14, §15, §16, §17
4. […]
as §18

CYP2C9 = target: T2, CYP2C9 (Homo sapiens, UniProt P11712); assay: Inhibition of human liver microsomal CYP450 enzymes, CYP2C9; format: in vitro ADME; conditions: human liver microsomes, substrate Diclofenac 10 μM; Reference = sulfaphenazole; read-out: IC50 2C9
T2 construct: from tissue; host or cells: human liver microsomes (HLM)
T2 sequence (P11712 whole entry): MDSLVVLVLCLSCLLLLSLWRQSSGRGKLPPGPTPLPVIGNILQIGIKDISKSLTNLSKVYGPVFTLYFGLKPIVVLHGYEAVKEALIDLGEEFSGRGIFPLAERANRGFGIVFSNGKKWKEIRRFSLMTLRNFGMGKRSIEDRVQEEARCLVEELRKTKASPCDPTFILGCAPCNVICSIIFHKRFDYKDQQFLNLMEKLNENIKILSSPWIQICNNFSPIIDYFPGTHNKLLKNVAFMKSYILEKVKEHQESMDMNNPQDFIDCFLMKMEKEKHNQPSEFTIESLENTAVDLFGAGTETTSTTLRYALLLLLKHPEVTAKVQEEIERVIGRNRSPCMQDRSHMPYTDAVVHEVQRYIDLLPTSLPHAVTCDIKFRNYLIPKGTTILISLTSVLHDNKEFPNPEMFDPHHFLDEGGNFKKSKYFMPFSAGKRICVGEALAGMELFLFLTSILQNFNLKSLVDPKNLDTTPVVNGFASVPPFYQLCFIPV
Method: as §1, §2, §3, §4, §5, §6, §7, §8, §9, §10
14. […]

[3] = Pharmacokinetic study in rats
Method: SD rats were used as test animals, and the drug concentrations in plasma at different times after intravenous and intragastric administration of the compounds of examples were determined by LC/MS/MS method(s) to study the pharmacokinetics of the compound in the present disclosure in rats
Healthy adult male SD (Sprague-Dawley) rats, 3 animals per test compound, 6-9 weeks old, weighing 250±50 g, were purchased from Shanghai SLAC Laboratory Animal Co., Ltd.
The appropriate amount of sample was weighed out, 0.5% Methocel/2% tween 80 was added to the final volume, and 2 mg/mL was prepared for intragastric administration.
Each 3 male SD rats of each test compound were taken by intragastric administration at a dosage of 10 mg/kg after fasting overnight.
Blood samples of each animal were collected at different time points 0.083-24 h from jugular vein puncture after administration, K2-EDTA anticoagulation, centrifugation, and blood plasma were collected, frozen at −70° C. until LC/MS/MS analysis.

CYP2C19 = target: T3, CYP2C19 (Homo sapiens, UniProt P33261); assay: Inhibition of human liver microsomal CYP450 enzymes, CYP2C19; format: in vitro ADME; conditions: human liver microsomes, substrate S-Mephenytoin 35 μM; Reference = omeprazole; read-out: IC50 2C19
T3 construct: from tissue; host or cells: human liver microsomes (HLM)
T3 sequence (P33261 whole entry): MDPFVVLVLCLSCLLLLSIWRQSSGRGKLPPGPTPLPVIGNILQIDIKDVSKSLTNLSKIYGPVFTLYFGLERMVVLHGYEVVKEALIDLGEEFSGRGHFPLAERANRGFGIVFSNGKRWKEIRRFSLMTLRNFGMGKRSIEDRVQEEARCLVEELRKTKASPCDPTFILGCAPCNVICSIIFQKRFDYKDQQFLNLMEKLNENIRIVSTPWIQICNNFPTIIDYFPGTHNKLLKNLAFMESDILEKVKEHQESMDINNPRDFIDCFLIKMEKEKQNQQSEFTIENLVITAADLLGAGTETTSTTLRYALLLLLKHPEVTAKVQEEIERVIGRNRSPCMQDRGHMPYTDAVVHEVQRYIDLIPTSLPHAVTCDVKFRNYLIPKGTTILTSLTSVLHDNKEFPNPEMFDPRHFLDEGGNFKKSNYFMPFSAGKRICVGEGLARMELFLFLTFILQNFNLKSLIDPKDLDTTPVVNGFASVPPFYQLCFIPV
Method: as §1, §2, §3, §4, §5, §6, §7, §8, §9, §10
14. […]

[4] = Liver microsomal stability in vitro, cynomolgus monkey; format: in vitro ADME; conditions: for half-life at 1 μM: pH 7.4, cynomolgus monkey liver microsomes 0.5 mg protein/mL, 1 μM test compound, 37° C., read-out: Cynomolgus monkey T1/2
Method: as §11, §12, §13, §14, §15, §16, §17
4. After preheating, NADPH regeneration system was distributed to 96-well plate, 90 μL per well, for standby according to plate map, which was added to each plate to start the reaction, 10 μL per well. The final concentration of each component in the incubation medium includes: 0.5 mg protein/mL microsome, 1 μM test compound, […], 0.99% methanol and 0.01% DMSO.
6. The above-prepared stop solution (4° C. cooling) was added to stop the reaction, 300 μL per well.
9. During centrifugation, eight new 96-well plates were loaded with 300 μL of HPLC water, and then 100 μL of supernatant was transferred for mixing, followed by LC/MS/MS detection.
as §18

[5] = SD rats, table head: Dose PO (10 mg/kg)
[6] = male, Sprague-Dawley, rat, plasma, po, 10 mg/kg, SD rats, PO 10 mg/kg
[7] = male, Sprague-Dawley, rat, in vivo, po, 10 mg/kg

SMILES	IC50 (CYP2D6)	half-life at 1 μM [1]	half-life at 1 μM [2]	IC50 (CYP2C9)	F ([3]; SD rats, PO 10 mg/kg)	CL [3, 5]	Vdss [3, 5]	AUC [3, 6]	Cmax ([3]; male, Sprague-Dawley, rat, plasma, po, 10 mg/kg, Cmax, SD rats, PO 10 mg/kg)	MRT [3, 6]	half-life ([3]; male, Sprague-Dawley, rat, plasma, po, 10 mg/kg, T1/2, SD rats, PO 10 mg/kg)	IC50 (CYP2C19)	half-life at 1 μM [4]	F [3, 7]	T1/2 [3, 7]	AUC [3, 7]	MRT [3, 7]	metabolic stability in cynomolgus monkey liver microsomes, in words ([4]; cynomolgus monkey liver microsomes)
NC(=O)c1cccc2cn(-c3ccc([C@@H]4CCCNC4)cc3)nc12 [Niraparib, reference compound]	> 10 µM	1.76 h	1.83 h	> 10 µM	65.0%	28.7 mL/min/kg	8.18 L/kg	4540 ng·h/mL	509 ng/mL	8.59 h	3.4 h	> 10 µM	0.967 h					
NC(=O)c1cccc2cn(-c3ccc([C@]4(F)CCCNC4)cc3)nc12 (single isomer, unassigned) [Example 23, (R or S)-2-(4-(3-fluoropiperidin-3-yl)phenyl)-2H-indazole-7-carboxamide]	> 10 µM	1.07 h	1.02 h	> 10 µM								> 10 µM	1.03 h	49.7%	16.0 h	3060 ng·h/mL	7.12 h	excellent metabolic stability
